Data taken from patent US10857155B2, “Compounds targeting proteins, compositions, methods, and uses thereof” (BioTheryX, Inc., priority 2017, dated 2020).

Experiments:
Assay type in all cases: cell-based
IL-1β = test: IL-1 beta in LPS-induced PBMCs / CD14+ monocytes, Meso Scale assay
Procedure: (§1) FIG. 2 represents the activity against IL-1-beta in CD14 monocytes, plated in 96 well plates and pretreated with Compounds 1, 2, or 3, or pomalidomide, for 1 h and then induced with 100 ng/mL LPS for 18-24 h. Cytokines were measured according to MesoScale protocol. Negative control wells were treated with DMSO. Compound activity was measured as a percentage of LPS-induced activity.
(§2) Either frozen primary blood mononuclear cells (PBMCs) or frozen CD14+ mobilized peripheral blood monocytes were purchased from AllCells (PB003F, Normal Peripheral Blood MNC (Alameda, Calif.)). Cells were quick thawed, washed 1-time with RPMI-1640 (10% FBS/1% Pen-Strep) and plated in 96 well plates at 200,000 cells per well. Cells were pretreated with DMSO only, pomalidomide or the indicated compounds for 1 h and then induced with 100 ng/mL lipopolysaccharide (LPS) for 18-24 h. The supernatant was analyzed for IL-1 beta, IL-6, and TNF-alpha, using Meso Scale assay according to manufacturer's protocol. The negative control wells were treated with DMSO.
(§3) Compound activity is measured as fold difference from the DMSO control. Compounds 1, 2, and 3 each reduced expression of IL-1-b in LPS-stimulated PBMCs by over 80% at 1 uM, relative to a just under 80% reduction with pomalidomide at 10 μM (FIG. 2).

TNF-α = test: TNF-alpha in LPS-induced PBMCs / CD14+ monocytes, Meso Scale assay
Procedure: as §1, with “FIG. 4” for “FIG. 2”, “against TNF-alpha” for “against IL-1-beta”, “in CD14,” for “in CD14”, “protocol. The negative” for “protocol. Negative”, “DMSO. Cells were treated with compound (at the indicated concentrations) or 10 μM pomalidomide.” for “DMSO.”
as §2, §3

IL-6 = IL-6 in LPS-induced PBMCs / CD14+ monocytes, Meso Scale assay
Procedure: as §1, with “FIG. 3” for “FIG. 2”, “against IL-6” for “against IL-1-beta”, “in CD14,” for “in CD14”, “DMSO. Cells were treated with compound (at the indicated concentrations) or 10 μM pomalidomide.” for “DMSO.”
as §2, §3

H1048 cells = test: Cell viability assay (CellTiter-Glo), H1048 cells; details: Homo sapiens, NCI-H1048, 72 h, 3 days; for viability at 1 µM: H1048, 1 μM; for viability at 10 µM: H1048, 10 μM
Procedure: (§4) Molm-13 cells were cultivated in RPMI-1640 (10% FBS/1% pen-strep) and were plated in white walled 96-well plates at 20,000 cells/well. H1048 cells were cultured in DMEM:F12 media supplemented with 5% fetal bovine serum, insulin, transferrin, sodium selenite, hydrocortisone, estradiol, penicillin and streptomycin, and were plated in white walled 96-well plates at 20,000 cells/well.
(§5) Cells were treated with compound at the indicated concentration or DMSO (control) and the cultures were incubated for 3 days at 37° C. and 5% CO2. Following the incubation period, 100 μL of CellTiterGlow (CTG) reagent (CellTiter-Glo® Luminescent Cell Viability Assay, Promega (Madison, Wis.)) was added to each well. Following a 10 min incubation with shaking, luminescence was measured using a Victor Wallac Luminometer.

Molm-13 cells = test: Cell viability assay (CellTiter-Glo), Molm-13 cells; details: Homo sapiens, 72 h, 3 days; for viability at 10 µM: MOLM-13, 10 μM; for viability at 0.5 µM: MOLM-13, 0.5 μM
Procedure: FIG. 5 represents antiproliferative activity in Molm-13 cells. The cells were incubated with Compound 1, 2, or 3 (at the indicated concentration), DMSO, or pomalidomide. Compound activity was measured based on the signal from remaining viable cells.
as §4, §5

GSPT1 = molecular target: T1, GSPT1 (Homo sapiens, UniProt P15170); test: Western blot analysis of GSPT1 protein levels in Jurkat cells; details: DMSO = 100.00; for GSPT1 protein level (% of DMSO control) at 0.1 µM: 100 nM compound; for GSPT1 protein level (% of DMSO control) at 1 µM: 1 uM compound
T1 construct: Whole cell extract was prepared with RIPA buffer according to manufacturer's protocol; endogenous in cells; host or cells: Jurkat cells
T1 sequence (P15170 whole entry): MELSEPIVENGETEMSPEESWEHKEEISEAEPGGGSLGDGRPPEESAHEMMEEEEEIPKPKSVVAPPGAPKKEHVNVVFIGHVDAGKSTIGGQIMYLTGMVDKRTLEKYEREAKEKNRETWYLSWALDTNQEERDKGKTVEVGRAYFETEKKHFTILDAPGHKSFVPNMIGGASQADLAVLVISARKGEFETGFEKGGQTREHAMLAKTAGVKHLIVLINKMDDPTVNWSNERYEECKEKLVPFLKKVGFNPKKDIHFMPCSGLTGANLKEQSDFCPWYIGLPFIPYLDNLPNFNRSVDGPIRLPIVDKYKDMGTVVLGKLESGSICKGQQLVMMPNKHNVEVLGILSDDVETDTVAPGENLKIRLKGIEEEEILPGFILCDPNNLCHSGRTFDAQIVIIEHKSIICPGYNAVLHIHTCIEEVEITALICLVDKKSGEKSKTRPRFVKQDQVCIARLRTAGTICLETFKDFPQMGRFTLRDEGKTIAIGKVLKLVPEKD
Procedure: FIG. 1 represents the activity against CK1α, ikaros, and GPST1 in Jurkat cells, plated in 96 well plates. Cells were pretreated with compounds for 4 h and then lysed and protein levels measure via Western blots. The negative control wells were treated with DMSO. Cells were treated with the indicated compound at the indicated concentration. Compound activity is measured as a decrease in GSPT1 protein levels.
Western Blot Protocol: Cell lines were grown in RPMI 1640 supplemented with streptomycin, penicillin and 10% fetal bovine serum.
Jurkat cells were cultured at approximately 10^6 cells per mL, DMSO or the indicated compound was added to the cells and allowed to incubate for 6-8 h. Whole cell extract was prepared with RIPA buffer according to manufacturer's protocol (Pierce (Dallas, Tex.)). Briefly, ˜2×10^6 cells were washed once in PBS, the cell pellet was resuspended in RIPA buffer and allowed to incubate for 15 min on ice. Cell debris was removed by centrifugation and the cleared whole cell lysate was transferred to a new tube for further analysis.
For western blot analysis, whole cell extracts were separated on 4-12% SDS-polyacrylamide gels, transferred to nitrocellulose and probed with the indicated primary antibodies. Membranes were subsequently washed and probed with the appropriate horseradish peroxidase (HRP)-conjugated secondary antibody. Membranes were subsequently washed and probed with the appropriate IRDye secondary antibodies (LI-COR). The signal was detected using the Odyssey Imaging System (LI-COR).

IL-2 = IL-2 in PBMCs on anti-human CD3 (OKT3) coated plates, Mesoscale analysis; details: PBMC, 24 h, relative to DMSO control, read-out: Fold Change IL-2
Procedure: For the IL-2 analysis, 96 well plates were precoated with 1 μg/mL anti-human CD3 antibody (OKT3, eBioscience Inc., San Diego, Calif.). After washing with PBS, compounds were added (50 μL/well) followed by PBMCs diluted at 3-4 million cells/mL (150 μL/well). Plates were incubated for 24 h and the supernatants collected for Mesoscale IL-2 analysis.
as §3

Row | Compound | GSPT1 protein level (% of DMSO control) at 0.1 µM (GSPT1) [%] | GSPT1 protein level (% of DMSO control) at 1 µM (GSPT1) [%] | inhibition at 1 µM (IL-1β) [%] | inhibition at 1 µM (TNF-α) [%] | inhibition at 1 µM (IL-6) [%] | viability at 1 µM (H1048 cells) [%] | viability at 10 µM (H1048 cells) [%] | viability at 10 µM (Molm-13 cells) [%] | fold induction at 1 µM (IL-2) | inhibition at 0.1 µM (IL-1β) [%] | inhibition at 0.1 µM (TNF-α) [%] | inhibition at 0.1 µM (IL-6) [%] | fold induction at 0.1 µM (IL-2) | viability at 0.5 µM (Molm-13 cells) [%] | viability at 1 µM (Molm-13 cells; MOLM-13, 1 μM) [%]
1 | COc1ccc(CC(=O)NCc2ccc3c(c2)CN([C@H]2CCCC(=O)NC2=O)C3=O)cc1Cl [Compound 13, (S)-2-(3-chloro-4-methoxyphenyl)-N-((2-(2,7-dioxoazepan-3-yl)-1-oxoisoindolin-5-yl)methyl)acetamide] | 95.9 | 46.2 | 77 | 53 | 85 | 97.8 | 44.2 | 84 | 2.6 | – | – | – | – | – | –
2 | O=C(Cc1cccc(CN2CCOCC2)c1)NCc1ccc2c(c1)CN([C@H]1CCCC(=O)NC1=O)C2=O [Compound 14, (S)—N-((2-(2,7-dioxoazepan-3-yl)-1-oxoisoindolin-5-yl)methyl)-2-(3-(morpholinomethyl)phenyl)acetamide] | 145 | 82.8 | – | – | – | 101 | 56.2 | 28 | – | 0 | 0 | 0 | 0.9 | – | –
3 | O=C(Cc1ccc(Cl)c(CN2CCOCC2)c1)NCc1ccc2c(c1)CN([C@H]1CCCC(=O)NC1=O)C2=O [Compound 15, (S)-2-(4-chloro-3-(morpholinomethyl)phenyl)-N-((2-(2,7-dioxoazepan-3-yl)-1-oxoisoindolin-5-yl)methyl)acetamide] | 167 | 111 | – | – | – | 93.3 | 35 | 84 | – | 0 | 0 | 0 | 1 | – | –
4 | Cc1ccc(NC(=O)NCc2ccc3c(c2C)CN([C@H]2CCCC(=O)NC2=O)C3=O)cc1Cl [Compound 16, (S)-1-(3-chloro-4-methylphenyl)-3-((2-(2,7-dioxoazepan-3-yl)-4-methyl-1-oxoisoindolin-5-yl)methyl)urea] | 59.4 | 39.3 | – | – | – | 7.66 | 3.93 | – | – | 72 | 78 | 72 | 1.7 | 70 | –
5 | Cc1ccc(NC(=O)NCc2cccc3c2CN([C@H]2CCCC(=O)NC2=O)C3=O)cc1Cl [Compound 17, (S)-1-(3-chloro-4-methylphenyl)-3-((2-(2,7-dioxoazepan-3-yl)-1-oxoisoindolin-4-yl)methyl)urea] | 131 | 80.5 | – | – | – | 95.5 | 34.9 | 91 | – | 19 | 18 | 0 | 1.3 | – | –
6 | Cc1ccc(CCNC(=O)NCc2ccc3c(c2)CN([C@H]2CCCC(=O)NC2=O)C3=O)cc1Cl [Compound 19, (S)-1-(3-chloro-4-methylphenethyl)-3-((2-(2,7-dioxoazepan-3-v)-1-oxoisoindolin-5-yl)methyl)urea] | – | 26.8 | – | – | – | 8.26 | 3.09 | – | – | 37 | 33 | 17 | 1.2 | – | 79
7 | Cc1ccc(CNC(=O)NCc2cccc3c2CN([C@H]2CCCC(=O)NC2=O)C3=O)cc1Cl [Compound 20, (S)-1-(3-chloro-4-methylbenzyl)-3-((2-(2,7-dioxoazepan-3-yl)-1-oxoisoindolin-4-yl)methyl)urea] | 126 | 160 | – | – | – | 98.5 | 96.2 | 23 | – | 12 | 11 | 7 | 1.1 | – | –

Second part, led by results:

Row | GSPT1 protein level (% of DMSO control) at 0.1 µM (GSPT1) [%] | GSPT1 protein level (% of DMSO control) at 1 µM (GSPT1) [%] | Compound | inhibition at 1 µM (IL-1β) [%] | inhibition at 1 µM (TNF-α) [%] | inhibition at 1 µM (IL-6) [%] | viability at 1 µM (H1048 cells) [%] | viability at 10 µM (H1048 cells) [%] | viability at 10 µM (Molm-13 cells) [%] | fold induction at 1 µM (IL-2) | inhibition at 0.1 µM (IL-1β) [%] | inhibition at 0.1 µM (TNF-α) [%] | inhibition at 0.1 µM (IL-6) [%] | fold induction at 0.1 µM (IL-2) | viability at 0.5 µM (Molm-13 cells) [%] | viability at 1 µM (Molm-13 cells; MOLM-13, 1 μM) [%]
8 | 83.3 | 49.3 | O=C(Cc1ccc(C(F)(F)F)c(Cl)c1)NCc1ccc2c(c1)CN([C@H]1CCCC(=O)NC1=O)C2=O [Compound 10, (S)-2-(3-chloro-4-(trifluoromethyl)phenyl)-N-((2-(2,7-dioxoazepan-3-yl)-1-oxoisoindolin-5-yl)methyl)acetamide] | 68 | 67 | 67 | 82.1 | 21.5 | 96 | 1.5 | – | – | – | – | – | –
9 | 137 | 56 | Cc1ccc(CC(=O)NCc2ccc3c(c2)CN([C@H]2CCCC(=O)NC2=O)C3=O)cc1CN1CCOCC1 [Compound 11, (S)—N-((2-(2,7-dioxoazepan-3-yl)-1-oxoisoindolin-5-yl)methyl)-2-(4-methyl-3-(morpholinomethyl)phenyl)acetamide] | 0 | 12 | 5 | 70.8 | 11.6 | 99 | 0.6 | – | – | – | – | – | –
10 | 69.7 | 20.2 | Cc1ccc(CNC(=O)NCc2ccc3c(c2)CN([C@H]2CCCC(=O)NC2=O)C3=O)cc1Cl [Compound 18, (S)-1-(3-chloro-4-methylbenzyl)-3-((2-(2,7-dioxoazepan-3-yl)-1-oxoisoindolin-5-yl)methyl)urea] | – | – | – | 14.2 | 4.28 | – | – | 53 | 48 | 41 | 1.5 | 68 | –
